From publication PMC5329948, “Caspase vinyl sulfone small molecule inhibitors prevent axonal degeneration in human neurons and reverse cognitive impairment in Caspase-6-overexpressing mice” (Molecular Neurodegeneration, 2017)
Several values for one entry are separate records, joined by “and”; a condition that tells them apart may be missing. Identical values can stand only once.

Experiment: Blood-brain barrier permeability by LC/MS-MS after carotid artery injection
Type: in vivo, mouse
Details: for concentration at 5 min: male, Casp6-expressing transgenic mice, mouse, in vivo
Method: Only males were used and littermates from each genotype (wild type (WT)/WT, WT/Cre, & knock-in (KI/)Cre) were tested together. The experimenter was blind to genotype and treatment groups. Mice were administered 20 mg/kg NWL-117 or physiological saline (0.9% NaCl) by intraperitoneal injections two times 48 h apart. […] Blood brain barrier permeability of NWL-117 caspase inhibitor: Briefly, 18–22 month old Casp6 mice were anesthetised with isoflurane, warmed with a heating blanket, and their physiological vitals (heart rate, body temperature, and respiration) monitored. The skin over the mouse’s neck was shaved, xylocaine applied, and an incision was made along the midline. Under a surgical microscope, the right carotid artery was gently separated from surrounding tissue. Two suture threads were placed at the proximal and distal ends of the carotid, and a small incision was made along the carotid wall. A micro-catheter (attached to a 1 ml syringe controlled by a micropump) was inserted and pushed to the entrance of the internal carotid artery. The catheter was secured in place using suture thread. NWL-117 (20 mg/kg) was infused via the micro-catheter using a pump set at 50 μL/min (total volume between 64 μL and 130 μL). After 5 min, blood was collected by intra-cardiac puncture, the mouse was perfused through the heart with ice cold saline for 2–3 min. The brain was removed and hippocampi were dissected and frozen on dry ice and stored. Samples were sent to the Biopharmacy platform at the University of Montreal (Quebec, Canada) for liquid chromatography and tandem mass spectrometry analysis. The integrity of the blood-brain barrier was confirmed by injecting 3% Evan’s blue solution in 20 month old Casp6 mice. Mouse cognitive analysis by novel object recognition: Mice were handled during 5 min for one week prior to behavioral tests. Novel object recognition (NOR) task was administered in three phases: habituation, familiarization (pre-exposure), and test phase. For habituation, mice were placed in the NOR box (80 cm x 80 cm, Stoelting Co, Wood Dale, IL, USA) for 5 min. After 24 h, the pre-exposure phase was initiated by allowing the animals to explore two identical objects inside the NOR box. Then, following a 2 h gap, mice were re-introduced to the NOR box which now contained a familiar and a novel object. The position of the novel object was counterbalanced between animals to avoid any bias related to a preference in the location of the new object and the use of potential confounding spatial cues. The objects were located in the middle of the NW and SE quadrants of the box, equidistantly from the box corners and from each other. The mice were placed in the middle of the SW quadrant. Washing the box and objects with 70% ethanol eliminated odour cues. The number of times touching each object was manually recorded, while the total distance, percent time moving, and number of entries into virtual cells were recorded using the HVS 2100 automated video tracking system (HVS Image, Buckingham, UK). Animals whose exploration was considered insufficient to allow recognition (<10 s per object) during the familiarization phase were excluded from analysis. Different object sets were used in the pre- and post-tests. Immunohistochemistry on mouse brain slices: Following behavioural analysis, animals were anaesthetized under isoflurane and perfused intracardially with ice cold saline for 7 min and 4% paraformaldehyde for 20 min. […]

[1] = Casp6 mice, 20 mg/kg carotid artery injection, 5 min, one value per animal, 20 mg/kg

CCC(C)[C@H](NC(=O)[C@H](CCC(=O)O)NC(=O)[C@@H](NC(=O)OCc1ccccc1)C(C)C)C(=O)N[C@H](/C=C/S(C)(=O)=O)CC(=O)O (some centres unmarked) [NWL-117]
Hippocampus concentration [1]: 193 nM and 816 nM and 67.9 nM and 356 nM and 879 nM
Plasma concentration [1]: 48.521 µM and 3.416 µM and 8.998 µM and 7.408 µM and 25.425 µM
Ratio of [hippocampal]/[plasma] [1]: 0.004 and 0.239 and 0.008 and 0.048 and 0.035
concentration at 5 min: 3.4 to 48 µM
concentration at 5 min (20 mg/kg): 0.0679 to 0.879 µM
